Assays:
[1] = in vitro study of arginine, CGP and HPC, enamel microhardness (FIG. 3); design: species or system bovine; conditions: after 10 days of exposure
Text: The in vitro study used bovine tooth enamel slabs which were polished and then subjected to an initial tooth softening step using lactic acid. An initial microhardness measurement was then made on each enamel specimen. The enamel specimens were subjected to four pH cycles per day, each cycle comprising a thirty-minute acid demineralization step followed by a twenty-minute lozenge remineralization step. Final microhardness measurements were taken on each specimen after 10 days of treatment and after 20 days of treatment. A fluoride dentifrice and a no-lozenge control sample were analyzed according to the same procedure for comparison purposes.
The latter two alternatives, chitosan and biofilm dispersing agents, were ruled out because they lacked approval for food use. Arginine was selected as the leading candidate for further evaluation. A new in vitro study was undertaken to evaluate arginine alone and in combination with CGP and HPC. CGP alone, CGP with HPC and fluoride were also investigated. The testing procedure was substantially the same as the in vitro study for calcium salts.
The height of each bar represents the change in the KHN as calculated by ΔKHN=KHN10-DAY−KHNINITIAL.

[2] = sugar alcohol assessment of salivary flow and time in mouth (FIG. 4); format: in vivo; conditions: test subjects using a mint vs at rest with no mint; preliminary results
Text: In addition to evaluating additives for their ability to provide tooth strengthening properties, the inventors also investigated a number of sugar alcohols, individually and in combination, for their ability to increase salivary flow and TIM. The investigation included dual layer formulations as well as compressed tablets. Greater salivary flow is desirable to create calcium delivery and increased TIM provides greater delivery time for active ingredients to have an effect. In FIG. 4, the blue bars represent the average salivary flow difference (in ml/min) between test subjects at rest with no mint versus test subjects using a mint. The green bars represent the average dissolution time in seconds/1000.

Row | Compound | change in enamel microhardness (ΔKHN) [1] | average salivary flow difference [2]
1 | N=C(N)NCCC[C@H](N)C(=O)O [Arginine] | did not produce significant results | –
2 | Cl.N=C(N)NCCC[C@H](N)C(=O)O [arginine HCl] | did not produce significant results | –
3 | OC[C@@H](O)[C@@H](O)CO [erythritol] | – | stimulated salivary flow
4 | calcium glycerophosphate [CGP] | increase in microhardness that was very similar to the sample for fluoride | –

Source: US20180325814A1, “CONFECTIONERY FOR ORAL CARE APPLICATIONS” (The Hershey Company, priority 2017, published 2018)
